The source of these data is PubChem BioAssay (NCI).

Several values for one entry are separate records, joined by “and”; a condition that tells them apart may be missing. Equal entries are not always repeated.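 48-hour exposure; five concentrations; linearly interpolated endpoints. GI50 is the concentration that inhibits growth by half. TGI denotes the concentration required for complete inhibition of growth.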 Where a SMILES comes first, the peptide text is derived from it. Bridges are numbered along the chain shown (N, C = ends). [ ]: non-standard residue; d: D form. The star is where a group is joined. ξ: configuration not given here. ξDab(CH2SO3H) = NC(CCNCS(=O)(=O)O)C(=O)O; Heptanoyl(6-Me) = CC(C)CCCCC(=O)*; Dab = NCC[CH](N)C(=O)O

Common to all, as to assay: NCI tumour cell line growth inhibition, 48 h
For test [1], the system named is SN12C renal.
Test [2] has as its system EKVX NSCLC.
In test [3] the test system is KM12 colon.
Test [4] relates to UACC-62 melanoma.
The test system of test [5] is RXF 393 renal.
Test [6] deals with CAKI-1 renal.
In test [7] the test system is HT29 colon.
The subject of test [8] is OVCAR-3 ovarian.
Test [9] deals with SK-OV-3 ovarian.
The test system of test [10] is MOLT-4 leukemia.

With `CC1=CCCC2C1(C)CCC(C)C2(C)Cc1cc(O)ccc1O` (stereo unspecified), the GI50 in test [1] was 13.1 µM; in [2], 7.71 µM; in test [3], 5.16 µM; in test [4], 13 µM; in test [5], 3.74 µM; in [6], 14.1 µM. The GI50 in test [7] is 14.2 µM; in test [8] it was 9.97 µM. In addition, the TGI was 29.3 µM and 23.8 µM in [1]; 22 µM and 18.8 µM in test [2]; 18.7 µM in test [3]; 28.7 µM and 24.5 µM in test [4]; 20.4 µM and 10.9 µM in test [5]; 27.2 µM and 22.5 µM in test [6]. The TGI was 29.6 µM and 37.1 µM in test [7]; 22.2 µM and 19.3 µM in test [8]; 29.9 µM and 39.1 µM in test [9]; 21 µM and 8.36 µM in test [10].
`O=[N+]([O-])c1ccc(C2CC(c3ccccc3)=Nc3ccccc3S2)cc1` (stereo unspecified): the GI50 is over 100 µM in [1]; over 100 µM in [2]; 6.13 µM in test [3]; over 100 µM in test [4]; over 100 µM in test [5]; over 100 µM in [6]. In addition, the GI50 in test [7] was 7.62 µM; in [8], 11.8 µM; in test [9] it was over 100 µM; in test [10], 6.04 µM. In addition, the TGI in [1] was over 100 µM; in [2], over 100 µM; in test [3], 97.5 µM; in test [4], over 100 µM; in test [5], over 100 µM; in test [6], over 100 µM. In addition, the TGI in test [7], in [8], in [9] and in test [10] was over 100 µM throughout.
For the molecule `CC1=NN(c2ccc(S(=O)(=O)O)cc2)C(=O)/C1=C/c1ccc(Cl)cc1`, the TGI in [1], in [2], in [3], in test [4], in test [5] and in test [6] was over 100 µM each time. The TGI in test [7], in test [8], in test [9] and in test [10] was over 100 µM in each case.
Take `CCCCNC(=O)C1C(=O)N(CCCC)C(=O)/C1=N\N` (stereo unspecified): the TGI in test [1], in test [2], in test [3], in test [4], in [5] and in test [6] was over 100 µM throughout. Besides, the TGI in test [7], in [8], in test [9] and in test [10] was over 100 µM throughout.
Turning to `CCC(C)C1NC(=O)C(CCNCS(=O)(=O)O)NC(=O)C(NC(=O)C(CCNCS(=O)(=O)O)NC(=O)C(NC(=O)C(CCNCS(=O)(=O)O)NC(=O)CCCCC(C)C)C(C)O)CCNC(=O)C(C(C)O)NC(=O)C(CCNCS(=O)(=O)O)NC(=O)C(CCNCS(=O)(=O)O)NC(=O)C(C(C)CC)NC1=O` (stereo unspecified) ({Heptanoyl(6-Me)}-[ξDab(CH2SO3H)]T[ξDab(CH2SO3H)][Dab][ξDab(CH2SO3H)]II[ξDab(CH2SO3H)][ξDab(CH2SO3H)]T; lactam 4-C; configuration not given here), the GI50 was 11.2 µM in test [1]; over 25 µM in [2]; 2.99 µM in test [3]; 7.44 µM in [4]; 7.47 µM in test [5]; over 25 µM in test [6]. In addition, the GI50 in [7] is 7.92 µM; in test [8] it was 2.88 µM; in [9] it was 8.13 µM; in test [10], 8.47 µM. Further, the TGI was over 25 µM in test [1]; over 25 µM in [2]; 9.55 µM in test [3]; over 25 µM in test [4]; over 25 µM in test [5]; over 25 µM in test [6]. Moreover, the TGI in test [7] was over 25 µM; in [8] it was 8.06 µM; in [9], over 25 µM; in [10] it was over 25 µM.
Turning to `COc1cc2c(cc1Cc1cccc(Cl)c1F)c(=O)c(C(=O)O)cn2[C@@H](CO)C(C)C`, the GI50 was 3.06 µM in test [1]; 3.85 µM in test [2]; 4.03 µM in test [3]; 2.74 µM in test [4]; 4.57 µM in [5]; 3.28 µM in [6]. Moreover, the GI50 was 2.62 µM in test [7], 3.32 µM in test [8], 4.64 µM in test [9] and 4.67 µM in test [10]. Besides, the TGI in [1] is 13.7 µM; in test [2], 17.3 µM; in test [3], 13.1 µM; in test [4] it was 10.1 µM; in test [5], 16.3 µM; in [6], 12.7 µM. Further, the TGI stood at 5.56 µM in test [7], 10.9 µM in [8], 26.3 µM in test [9] and 18.5 µM in [10].
In the case of `[Cl][Hg][c]1ccc(Cl)s1`, the GI50 in [1] was 2.95 µM; in [2], 5.72 µM; in test [3] it was 14.3 µM; in test [4] it was 1.57 µM; in test [5], 1.56 µM; in test [6] it was 1.69 µM. Moreover, the GI50 in test [7] is 1.14 µM; in test [9], 13.6 µM; in test [10] it was 1.64 µM. Also, the TGI came to 8.19 µM in test [1]; 20.2 µM in test [2]; 28 µM in test [3]; 3.46 µM in test [4]; 2.95 µM in test [5]; 3.29 µM in test [6]. Besides, the TGI in [7] was 4.66 µM; in [9] it was 26.8 µM; in [10], 6.68 µM.
With `N#CCCCCCOCCOCCOCCOCCOCCCCCC#N`, the TGI in test [1], in [2], in test [3], in [4], in [5] and in test [6] was over 100 µM each time. For the same molecule, the TGI in [7], in test [8], in [9] and in test [10] was over 100 µM throughout.
As to `Cc1nn2c(nc1=O)sc1ccc3ccccc3c12`, the TGI in test [1], in [2], in test [3], in test [4], in test [5] and in test [6] was over 100 µM throughout. The TGI in test [7], in test [8], in [9] and in test [10] was over 100 µM in each case.
